The record followed here is ChEMBL document CHEMBL1147554, “Novel pyrrole-containing progesterone receptor modulators” (Bioorg Med Chem Lett, 2004).

Assay [1] has as its target T1, Progesterone receptor (Homo sapiens, UniProt P06401).
T1 sequence (P06401 whole entry): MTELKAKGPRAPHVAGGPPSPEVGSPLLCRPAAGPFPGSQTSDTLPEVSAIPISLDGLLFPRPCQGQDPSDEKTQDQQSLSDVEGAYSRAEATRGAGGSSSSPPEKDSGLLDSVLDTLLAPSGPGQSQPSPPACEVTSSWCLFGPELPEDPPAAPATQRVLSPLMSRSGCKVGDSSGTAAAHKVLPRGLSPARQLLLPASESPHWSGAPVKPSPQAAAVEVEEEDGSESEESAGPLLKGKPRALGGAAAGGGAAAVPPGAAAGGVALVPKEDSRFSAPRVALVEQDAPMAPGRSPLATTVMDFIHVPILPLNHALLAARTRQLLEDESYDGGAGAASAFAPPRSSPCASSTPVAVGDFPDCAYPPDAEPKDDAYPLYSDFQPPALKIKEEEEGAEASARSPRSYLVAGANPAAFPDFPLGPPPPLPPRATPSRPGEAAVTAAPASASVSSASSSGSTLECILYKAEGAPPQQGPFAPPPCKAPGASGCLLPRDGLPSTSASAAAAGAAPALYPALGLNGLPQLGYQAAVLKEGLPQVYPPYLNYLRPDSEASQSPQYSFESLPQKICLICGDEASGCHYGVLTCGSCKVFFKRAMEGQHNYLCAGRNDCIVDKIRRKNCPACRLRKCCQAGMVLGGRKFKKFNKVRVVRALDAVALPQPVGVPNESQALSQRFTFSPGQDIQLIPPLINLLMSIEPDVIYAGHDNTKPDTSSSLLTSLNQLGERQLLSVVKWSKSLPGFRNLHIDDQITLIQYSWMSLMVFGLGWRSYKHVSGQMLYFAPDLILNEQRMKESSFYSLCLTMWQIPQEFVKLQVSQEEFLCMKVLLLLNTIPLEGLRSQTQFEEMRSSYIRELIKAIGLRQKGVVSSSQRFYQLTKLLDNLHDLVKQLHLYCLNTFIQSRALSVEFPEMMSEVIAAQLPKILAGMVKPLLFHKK
Kind of assay: Ability to block progesterone induced alkaline phosphatase activity in T47D human breast cancer cell line. In kind it is functional, cell-based.

Assay [2] has as its target T1, Progesterone receptor. Kind of assay: Agonistic activity measures the ability to induce alkaline phosphatase in T47D human breast cancer cell line. In kind it is functional, cell-based.
Assay [3] in a line: Displacement of [3H]progesterone at progesterone receptor of T47D cells. In kind it is cell-based, Homo sapiens.
Assay [4] has as its target T2, Progesterone receptor (Homo sapiens) (UniProt P06401).
T2 sequence (whole entry): T1 sequence (P06401 whole entry)
Kind of assay: Efficacy in vitro relative to P4 in progesterone receptor induced alkaline phosphatase T47D cell assay. The format is functional, cell-based.

Assay [5] addresses T3, Progesterone receptor (Rattus norvegicus) (UniProt Q63449).
T3 sequence (whole entry): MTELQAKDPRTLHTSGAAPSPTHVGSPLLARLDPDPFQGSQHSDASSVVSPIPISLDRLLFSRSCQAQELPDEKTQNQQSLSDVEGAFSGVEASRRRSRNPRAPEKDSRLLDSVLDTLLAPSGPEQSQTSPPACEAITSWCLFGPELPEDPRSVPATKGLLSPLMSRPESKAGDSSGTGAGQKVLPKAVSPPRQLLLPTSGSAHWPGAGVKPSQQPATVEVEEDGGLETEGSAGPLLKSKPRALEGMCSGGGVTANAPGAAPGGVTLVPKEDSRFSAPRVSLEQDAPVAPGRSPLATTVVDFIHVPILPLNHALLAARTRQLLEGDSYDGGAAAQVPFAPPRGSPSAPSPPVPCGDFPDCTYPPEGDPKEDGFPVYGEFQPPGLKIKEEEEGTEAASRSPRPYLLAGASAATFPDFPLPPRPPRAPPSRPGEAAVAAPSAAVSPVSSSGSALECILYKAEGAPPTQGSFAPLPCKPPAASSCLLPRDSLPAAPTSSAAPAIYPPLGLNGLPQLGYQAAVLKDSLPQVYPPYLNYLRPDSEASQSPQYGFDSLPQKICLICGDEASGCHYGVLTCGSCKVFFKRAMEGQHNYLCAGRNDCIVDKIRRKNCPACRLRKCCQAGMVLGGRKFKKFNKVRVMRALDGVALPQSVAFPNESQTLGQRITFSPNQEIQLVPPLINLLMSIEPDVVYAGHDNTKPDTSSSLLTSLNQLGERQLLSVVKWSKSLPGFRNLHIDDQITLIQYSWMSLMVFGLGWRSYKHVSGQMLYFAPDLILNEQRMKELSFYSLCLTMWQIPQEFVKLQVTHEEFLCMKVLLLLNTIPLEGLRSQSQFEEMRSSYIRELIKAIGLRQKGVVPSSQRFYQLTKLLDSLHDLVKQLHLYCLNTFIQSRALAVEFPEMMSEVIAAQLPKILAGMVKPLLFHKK
The experiment in a line: Percentage inhibition of progesterone-induced stimulation when administered orally at 10 mg/kg in rat decidualization assay. In kind it is functional, organism-based. Also noted: dose 10 mg/kg.

The target of assay [6] is T1, Progesterone receptor. The experiment in a line: Agonistic activity as progesterone receptor induced alkaline phosphatase activity in T47D human breast cancer cells. The format is functional, cell-based.
Assay [7] in a line: Antagonist activity for glucocorticoid receptor. The format is functional.
For assay [8], the target named is T4, Androgen receptor (Homo sapiens, UniProt P10275).
T4 sequence (P10275 whole entry): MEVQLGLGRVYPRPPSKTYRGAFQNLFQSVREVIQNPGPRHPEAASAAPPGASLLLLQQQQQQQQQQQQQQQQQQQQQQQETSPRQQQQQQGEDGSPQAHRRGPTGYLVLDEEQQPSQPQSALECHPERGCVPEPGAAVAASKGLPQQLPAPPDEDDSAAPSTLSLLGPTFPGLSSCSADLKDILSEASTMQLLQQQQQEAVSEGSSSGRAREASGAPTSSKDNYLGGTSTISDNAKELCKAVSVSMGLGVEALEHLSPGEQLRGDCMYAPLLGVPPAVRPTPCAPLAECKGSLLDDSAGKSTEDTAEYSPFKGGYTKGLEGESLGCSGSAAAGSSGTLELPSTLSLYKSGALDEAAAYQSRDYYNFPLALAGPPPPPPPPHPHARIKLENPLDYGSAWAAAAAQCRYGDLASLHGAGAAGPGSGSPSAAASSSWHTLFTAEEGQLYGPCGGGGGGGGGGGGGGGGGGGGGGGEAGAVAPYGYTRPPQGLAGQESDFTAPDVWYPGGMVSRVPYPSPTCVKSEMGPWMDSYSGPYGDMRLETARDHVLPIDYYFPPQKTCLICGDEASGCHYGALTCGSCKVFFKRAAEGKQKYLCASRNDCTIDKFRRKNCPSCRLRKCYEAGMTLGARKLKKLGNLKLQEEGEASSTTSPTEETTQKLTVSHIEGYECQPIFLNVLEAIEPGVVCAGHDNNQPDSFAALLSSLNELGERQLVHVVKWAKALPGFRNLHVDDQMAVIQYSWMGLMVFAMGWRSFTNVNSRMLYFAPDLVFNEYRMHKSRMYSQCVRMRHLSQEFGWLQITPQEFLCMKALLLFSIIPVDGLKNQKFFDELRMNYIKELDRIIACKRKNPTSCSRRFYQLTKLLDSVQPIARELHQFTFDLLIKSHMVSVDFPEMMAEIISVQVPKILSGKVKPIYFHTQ
Kind of assay: Antagonist activity for androgen receptor. The format is functional.

The target of assay [9] is T5, Androgen receptor (Homo sapiens) (UniProt P10275).
T5 sequence (whole entry): T4 sequence (P10275 whole entry)
Kind of assay: Agonistic activity for androgen receptor up to 10 uM; Not active. In kind it is functional.

The nature of assay [10]: Agonistic activity for glucocorticoid receptor up to 10 uM; Not active. The format is functional.
Assay [11] addresses T3, Progesterone receptor (Rattus norvegicus). The experiment in a line: Percentage inhibition of progesterone-induced stimulation when administered orally at 3 mg/kg in rat decidualization assay. In kind it is functional, organism-based. The arrangement: dose 3 mg/kg.

By IC50 is commonly meant the concentration that inhibits the measured activity by half. As a reminder, the EC50 is the midpoint of the concentration-response curve. A higher EC50 goes with a less potent agent. One may read the inhibition as the change of the read-out against control, counted positive when it falls. Low values mean a weak effect, high ones a strong effect.

The source made the active and inactive calls. The calls are words filed in the database; no cut-off is given here. Bounds are passed on as bounds.

In the case of `CC1(C)OC(=O)Nc2ccc(-c3ccc[nH]3)cc21`, the half-inhibitory concentration (IC50) in assay [1] is roughly 3 µM. In addition, in assay [2], the EC50 is greater than 3 µM.
The matching figures for `CC1(C)OC(=O)Nc2ccc(-c3cnc(C#N)o3)cc21`: roughly 3 µM and greater than 1 µM.
For the compound `CC1(C)OC(=O)Nc2ccc(-c3cccc(C#N)c3)cc21`, the half-inhibitory concentration (IC50) in assay [1] was 0.008 µM; in assay [3] it was 0.018 µM. This compound also yielded an EC50 in assay [2] of roughly 1 µM.
For `N#Cc1ccc(-c2ccc3c(c2)C2(CCCCC2)C(=O)N3)[nH]1`, in [1], the IC50 is greater than 3 µM. The midpoint of the response in assay [2], the EC50, lay at 0.06 µM.
On to `CC1(C)OC(=O)Nc2ccc(-c3ccc(C#N)o3)cc21`, for which it took 0.065 µM to reach half-maximal inhibition in [1] (IC50). This compound also yielded an EC50 in assay [2] of roughly 3 µM.
On to `CC1(C)OC(=O)Nc2ccc(-c3c[nH]c(C#N)c3)cc21`, for which the half-maximal inhibitory concentration (IC50) in [1] is roughly 2 µM. The EC50 in assay [2] was greater than 1 µM.
Regarding `Cn1c(C#N)ccc1-c1ccc2c(c1)C(C)(C)OC(=O)N2`, in assay [4], the Efficacy was 80%. Besides, in assay [5], the inhibition was found to be 50%. The concentration for half-maximal inhibition (IC50) in assay [1] was greater than 3 µM; in assay [3], 0.0049 µM. In assay [6], this compound displayed an EC50 of 0.0011 µM.
Take `CC(=O)[C@H]1CC[C@H]2[C@@H]3CCC4=CC(=O)CC[C@]4(C)[C@H]3CC[C@]12C` [PROGESTERONE]: the IC50 in assay [3] is 0.0034 µM.
The compound `CCn1c(C#N)ccc1-c1ccc2c(c1)C(C)(C)OC(=O)N2` showed an Efficacy in [4] of 80%. In addition, the inhibition in assay [5] turned out to be 30%. The IC50 in assay [1] is roughly 3 µM; in assay [3] it was 0.0094 µM. Further, in assay [6], the 50% effective concentration (EC50) turned out to be 0.0018 µM.
Turning to `Cn1ccc(C#N)c1-c1ccc2c(c1)C(C)(C)OC(=O)N2`, in assay [1], the 50% inhibitory concentration (IC50) was roughly 3 µM. This compound yielded a half-maximal effective concentration (EC50) in [2] greater than 1 µM.
Regarding `CC1(C)OC(=O)Nc2ccc(-c3ccc(C=O)[nH]3)cc21`, the IC50 in assay [1] was greater than 3 µM. For the same compound, the EC50 in assay [2] is roughly 1 µM.
As for `CC1(C)OC(=O)Nc2ccc(-c3ccc(C#N)[nH]3)cc21`, the half-maximal inhibitory concentration (IC50) in [1] was greater than 3 µM; in assay [3] it was 0.029 µM. Further, a half-maximal effect in assay [2] (EC50) was put at 0.0021 µM.
Regarding `N#Cc1cccc(-c2ccc3c(c2)C2(CCCCC2)C(=O)N3)c1`, the IC50 in assay [7] and in assay [8] was greater than 1 µM each time. Besides, the result in [9] and in assay [10] was inactive.
For `Cn1c(C#N)ccc1-c1ccc2c(c1)C1(CCCCC1)C(=O)N2`, the IC50 was greater than 3 µM in [1] and 0.0034 µM in assay [3]. For the same compound, the EC50 in assay [2] was 0.0028 µM.
As to `CC#C[C@]1(O)CC[C@H]2[C@@H]3CCC4=CC(=O)CCC4=C3[C@@H](c3ccc(N(C)C)cc3)C[C@@]21C` [MIFEPRISTONE], in assay [3], the concentration for half-maximal inhibition (IC50) was determined as 0.0007 µM.
On to `CC1(C)OC(=O)Nc2ccc(-c3ccc(C(=O)C(F)(F)F)[nH]3)cc21`, for which, in assay [1], the concentration for half-maximal inhibition (IC50) was greater than 3 µM. The same compound showed an EC50 in assay [2] of roughly 1 µM.
`O=C1Nc2ccc(-c3ccc([N+](=O)[O-])[nH]3)cc2C12CCCCC2` had an IC50 in assay [1] of 0.036 µM. In [2], this compound gave an EC50 greater than 1 µM. Besides, the inhibition in assay [11] amounted to 50%.
As to `CC1(C)OC(=O)Nc2ccc(-c3ccc(C#N)s3)cc21`, the IC50 in assay [1] stood at 0.023 µM. The same compound displayed a concentration for a half-maximal effect (EC50) in assay [2] of roughly 1 µM.
On to `CC1(C)OC(=O)Nc2ccc(-c3[nH]ccc3C#N)cc21`, for which the IC50 in assay [1] was greater than 3 µM. This compound also gave an EC50 in assay [2] greater than 1 µM.
For the compound `CC1(C)OC(=O)Nc2ccc(-c3ccc([N+](=O)[O-])[nH]3)cc21`, in [1], half-maximal inhibition (IC50) required 0.18 µM. The EC50 in assay [2] is roughly 1 µM.
`Cn1c(-c2ccc3c(c2)C(C)(C)OC(=O)N3)cnc1C#N` yielded an IC50 in assay [1] greater than 3 µM. The EC50 in assay [2] came out at 0.13 µM.
`Cn1cc(-c2ccc3c(c2)C(C)(C)OC(=O)N3)cc1C#N`: the 50% inhibitory concentration (IC50) in assay [1] turned out to be 0.041 µM; in [3], 0.088 µM. Besides, in [2], the EC50 was greater than 1 µM.
